We go through seven molecules from paper PMC8157715 (2020).

Test [1] concerns Wide-type adenosine Apt (wild-type aptamer) (DNA, aptamer) ACCTGGGGGAGTATTGCGGAGGAAGGT
Briefly: SYBR Green I fluorescence. As to conditions: 100 mM NaCl, 5 mM MgCl2, 20 mM HEPES pH 7.6, 2 mM.

Test [2] deals with Res-A10-Right cut (DNA, aptamer) GTATTGCGGAGGAAGGTTTTTAACCTTCGGGGA
Briefly: SYBR Green I fluorescence. As to conditions: 100 mM NaCl, 5 mM MgCl2; 20 mM HEPES pH 7.6; SYBR Green I displaced; 2 mM.

For test [3], the system named is A10-excised Apt (DNA, aptamer) GTATTGCGGAGGAAGGTTTTTAACCTTCGGGG
Briefly: SYBR Green I fluorescence. Conditions: 100 mM NaCl, 5 mM MgCl2; 20 mM HEPES pH 7.6; SYBR Green I displaced; 2 mM.

The test system of test [4] is Res-A10-Right cut (DNA, aptamer) GTATTGCGGAGGAAGGTTTTTAACCTTCGGGGA
Briefly: ITC. As to conditions: 100 mM NaCl, 5 mM MgCl2, 20 mM HEPES pH 7.6, 10 °C.

For test [5], the system named is A10-excised Apt (DNA, aptamer) GTATTGCGGAGGAAGGTTTTTAACCTTCGGGG
Briefly: SYBR Green I fluorescence titration. As to conditions: 100 mM NaCl, 5 mM MgCl2, 20 mM HEPES pH 7.6.

Test [6] has the same test system. Briefly: ITC. As to conditions: 100 mM NaCl, 5 mM MgCl2, 20 mM HEPES pH 7.6, 10 °C.
The subject of test [7] is One-site Apt (DNA, aptamer) ACCTTCGGGGAGTATTGCGGAGGAAGGT
Briefly: ITC. As to conditions: 100 mM NaCl, 5 mM MgCl2; 20 mM HEPES pH 7.6, 10 °C, one-site model.

The test system of test [8] is Res-A10-Right cut (DNA, aptamer) GTATTGCGGAGGAAGGTTTTTAACCTTCGGGGA
Briefly: SYBR Green I fluorescence titration. Conditions: 100 mM NaCl, 5 mM MgCl2, 20 mM HEPES pH 7.6.

Test [9] relates to Res-A10-Left cut (DNA, aptamer) AGTATTGCGGAGGAAGGTTTTTAACCTTCGGGG
Briefly: SYBR Green I fluorescence. As to conditions: 100 mM NaCl, 5 mM MgCl2; 20 mM HEPES pH 7.6; SYBR Green I displaced; drop two thirds of adenosine's.

The test system is the same in test [10]. Briefly: SYBR Green I fluorescence titration. As to conditions: 100 mM NaCl, 5 mM MgCl2; 20 mM HEPES pH 7.6; SYBR Green I (50 nM) displaced; apparent.
Test [11] concerns Duplex-2 (DNA, hairpin) GTATTGCGCCCCGAAGGTTTTTAACCTTCGGGG
Briefly: SYBR Green I fluorescence. As to conditions: 100 mM NaCl, 5 mM MgCl2; 20 mM HEPES pH 7.6; 12.5 nM SYBR Green I; 2 mM.

Test [12] has as its system Duplex-1 (DNA, hairpin) GGGGGTATTGCCCCCGCAAGGTTTTTAACCTTG
Briefly: SYBR Green I fluorescence. As to conditions: 100 mM NaCl, 5 mM MgCl2; 20 mM HEPES pH 7.6; 12.5 nM SYBR Green I; 2 mM.

Where [13] appears, read: 1 mM AMP in syringe, extremely weak, undetectable heat.
Setting [14] is: SYBR Green I (50 nM) displaced, apparent.

With `O=c1ccn([C@@H]2O[C@H](CO)[C@@H](O)[C@H]2O)c(=O)[nH]1`, the binding entry in test [1] (SYBR Green I displaced), in [2] and in test [3] was “no” in each case.
Take `Cn1c(=O)c2[nH]cnc2n(C)c1=O`: the binding result in test [1] (SYBR Green I displaced) and in [3] was “no” throughout.
On to `Nc1ncnc2c1ncn2[C@@H]1O[C@H](COP(=O)(O)OP(=O)(O)OP(=O)(O)O)[C@@H](O)[C@H]1O`, for which the binding result in test [1] (50 nM SYBR Green I displaced) is “yes”; in [2], “no”; in test [3], “no”.
With `Nc1nc2c(ncn2[C@@H]2O[C@H](CO)[C@@H](O)[C@H]2O)c(=O)[nH]1`, the binding result in test [1] (SYBR Green I displaced) and in test [3] was “no” each time.
Consider `Nc1ncnc2c1ncn2[C@@H]1O[C@H](COP(=O)(O)O)[C@@H](O)[C@H]1O`, for which the binding result in [1] (50 nM SYBR Green I displaced) was “yes”; in test [4] (setting [13]), “no”; in test [5] (SYBR Green I displaced, up to 2 mM) it was “no”; in [6] (setting [13]) it was “no”; in test [8] (SYBR Green I displaced, no binding in titration) it was “no”; in test [9], “yes”. For the same molecule, the Kd in test [7] turned out to be 13.5 ± 1.6 µM.
As for `Nc1ncnc2c1ncn2[C@@H]1O[C@H](CO)[C@@H](O)[C@H]1O`, the Kd was determined as 570 µM in [10]; 21.0 ± 3.8 µM in [4] (one-site model); 370 µM in [5] (setting [14]); 14.8 ± 2.1 µM in test [6] (one-site model); 2.8 ± 0.1 µM in [7]. The values for the binding entry in test [1] (50 nM SYBR Green I displaced), in test [11] and in test [12] were “yes”, “no” and “no”, respectively. For the same molecule, the half saturation in test [8] (setting [14]) came to 0.94 mM.
As to `Nc1ccn([C@@H]2O[C@H](CO)[C@@H](O)[C@H]2O)c(=O)n1`, the binding result in [1] (SYBR Green I displaced), in [11], in test [2] and in test [3] was “no” each time.
